Assay results published in the NIST ThermoML archive (doi:10.1021/acs.jced.9b00046).
± gives the expanded uncertainty stated by the source.

Assay: mn = molality of the nth substance listed, in mol/kg
Conditions: 99.6 kPa, Liquid; for viscosity: Capillary tube (Ostwald / Ubbelohde) method; for mass density: Vibrating tube method

CNC(C)=O [N-methylacetamide] + [Cl-].[Cl-].[Mg+2]
Conditions	mass density, 308.15 K [kg/m3]	mass density, 313.15 K [kg/m3]	mass density, 318.15 K [kg/m3]	mass density, 323.15 K [kg/m3]	mass density, 328.15 K [kg/m3]	viscosity, 308.15 K [mPa·s]	viscosity, 313.15 K [mPa·s]	viscosity, 318.15 K [mPa·s]	viscosity, 323.15 K [mPa·s]	viscosity, 328.15 K [mPa·s]
m2 = 0	945.71 ± 1.9	941.53 ± 1.9	937.33 ± 1.9	933.16 ± 1.9	928.93 ± 1.9	3.488 ± 0.043	3.073 ± 0.038	2.723 ± 0.034	2.438 ± 0.03	2.194 ± 0.027
m2 = 0.00111	945.76 ± 1.9	941.57 ± 1.9	937.37 ± 1.9	933.2 ± 1.9	928.98 ± 1.9	3.491 ± 0.043	3.077 ± 0.038	2.725 ± 0.034	2.44 ± 0.03	2.196 ± 0.027
m2 = 0.004	945.9 ± 1.9	941.69 ± 1.9	937.51 ± 1.9	933.33 ± 1.9	929.12 ± 1.9	3.502 ± 0.043	3.087 ± 0.038	2.735 ± 0.034	2.448 ± 0.03	2.203 ± 0.027
m2 = 0.00479	945.94 ± 1.9	941.73 ± 1.9	937.54 ± 1.9	933.37 ± 1.9	929.16 ± 1.9	3.505 ± 0.043	3.09 ± 0.038	2.737 ± 0.034	2.451 ± 0.03	2.204 ± 0.027
m2 = 0.00663	946.03 ± 1.9	941.81 ± 1.9	937.63 ± 1.9	933.45 ± 1.9	929.24 ± 1.9	3.512 ± 0.043	3.097 ± 0.038	2.743 ± 0.034	2.455 ± 0.03	2.208 ± 0.027
m2 = 0.00734	946.06 ± 1.9	941.85 ± 1.9	937.66 ± 1.9	933.48 ± 1.9	929.29 ± 1.9	3.514 ± 0.043	3.099 ± 0.038	2.747 ± 0.034	2.457 ± 0.03	2.211 ± 0.027
m2 = 0.00868	946.13 ± 1.9	941.92 ± 1.9	937.73 ± 1.9	933.54 ± 1.9	929.35 ± 1.9	3.52 ± 0.043	3.103 ± 0.038	2.75 ± 0.034	2.462 ± 0.03	2.214 ± 0.027
m2 = 0.01179	946.27 ± 1.9	942.07 ± 1.9	937.87 ± 1.9	933.7 ± 1.9	929.49 ± 1.9	3.531 ± 0.043	3.114 ± 0.038	2.76 ± 0.034	2.471 ± 0.03	2.221 ± 0.027
m2 = 0.01529	946.45 ± 1.9	942.24 ± 1.9	938.04 ± 1.9	933.87 ± 1.9	929.68 ± 1.9	3.544 ± 0.044	3.127 ± 0.038	2.771 ± 0.034	2.48 ± 0.031	2.23 ± 0.028
m2 = 0.02124	946.72 ± 1.9	942.53 ± 1.9	938.33 ± 1.9	934.15 ± 1.9	929.95 ± 1.9	3.566 ± 0.044	3.147 ± 0.039	2.792 ± 0.034	2.495 ± 0.031	2.244 ± 0.028
m2 = 0.02416	946.86 ± 1.9	942.67 ± 1.9	938.47 ± 1.9	934.29 ± 1.9	930.09 ± 1.9	3.577 ± 0.044	3.156 ± 0.039	2.801 ± 0.034	2.505 ± 0.031	2.251 ± 0.028
m2 = 0.05144	948.15 ± 1.9	943.94 ± 1.9	939.77 ± 1.9	935.6 ± 1.9	931.4 ± 1.9	3.681 ± 0.045	3.251 ± 0.04	2.89 ± 0.036	2.579 ± 0.032	2.317 ± 0.029
m2 = 0.0831	949.6 ± 1.9	945.45 ± 1.9	941.26 ± 1.9	937.11 ± 1.9	932.91 ± 1.9	3.798 ± 0.047	3.361 ± 0.041	2.994 ± 0.037	2.67 ± 0.033	2.391 ± 0.029
